The text below walks through data of US7419812B2, “Sequences encoding PhzO and methods” (The United States of America as represented by the …, priority 2000, dated 2008).

The data set is described as follows: Spontaneous conversion (decarboxylation) of synthetic 2-OH-PCA to 2-OH-PHZ in phosphate buffer, RP-HPLC. Format: physicochemical. The procedure: Since phenazine-producing Pseudomonas spp. often produce mixtures of phenazine compounds, a generalized HPLC protocol for detection of these metabolites was developed. The protocol utilized a NOVA-PAK C18 reverse-phase Radial-PAK cartridge (4 μm, 8×100 mm) (Waters Corp., Milford, Mass.), and solvent conditions consisting of a 2-min initial wash with 35% ACN/0.1% TFA in H2O followed by a 25-min linear gradient to 100% ACN/0.1% TFA at a flow rate of 1.0 ml/min. The Waters HPLC system included a 710B WISP, 510 pumps, and a 680 automated gradient controller with a 990 photodiode array detector (Waters Corp.). Phenazine compounds were identified by retention time and ultraviolet spectrum. Standards included compounds purified from well-characterized strains (Mavrodi et al, 1998, supra; Pierson and Thomashow, 1992, supra) and chemically-synthesized compounds (PCA, 2-OH-PCA, and 2-OH-PHZ) obtained from Colour Your Enzyme (Bath, Ontario, Canada). […] 2-OHPHZ, which is formed by spontaneous decarboxylation of 2-OH-PCA (see below), was therefore used as an indicator of 2-hydroxyphenazine synthesis and when necessary, the presence of 2-OH-PCA in samples containing PCA was determined by peak purity and spectral analyses using the Waters 991 photodiode array (Waters Corp.).
Expression and Functional Analysis of PhzO. The phzO gene from P. aureofaciens 30-84 was cloned in pUCP26 under the control of the lac promoter and expressed in E. coli JM109. Cells from induced cultures expressing PhzO produced a unique band of approximately 55 kDa on SDS-PAGE gels, in good agreement with the size predicted by nucleotide sequence analysis. Induced cultures of E. coli expressing PhzO converted PCA (0.3 or 0.5 mg/ml in 5% NaHCO3) to 2-OH-PCA and 2-OH-PHZ within 3 h, whereas no such conversion occurred in control cultures harboring only pUCP26 (FIG. 2). […] To determine whether PhzO is responsible for this reaction in P. aureofaciens 30-84, a tetracycline resistance gene was inserted into phzO and introduced in the genome by homologous recombination. […]

Values joined by “and” are separate entries in the source; they are usually repeats but may differ in a detail not shown here. Equal entries are not always repeated.

Consider `O=C(O)c1c(O)ccc2nc3ccccc3nc12` [2-OH-PCA, 2-hydroxyphenazine-1-carboxylic acid], for which the “2-OH-PHZ as share of the total phenazine present” value (0.1 M sodium phosphate buffer pH 4.0, 18 h) turned out to be 0.2%. The “2-OH-PCA initially present converted to 2-OH-PHZ” value (0.1 M sodium phosphate buffer pH 6.0, 18 h) was 33% and 33.3%; the “2-OH-PCA initially present converted to 2-OH-PHZ” value (0.1 M sodium phosphate buffer pH 8.0, 18 h) is 62% and 64%.
